Values after ≈ are worked out from the molar mass of the structure shown. Values joined by “and” are separate entries in the source; they are usually repeats but may differ in a detail not shown here. Equal entries are not always repeated.
Legend:
SARS-CoV-2 = assay: microbe, parasite or virus in culture; format: cell-based

## O=C1CN(/N=C/c2ccc(-c3ccc([N+](=O)[O-])cc3)o2)C(O)=N1 [dantrolene]
SARS-CoV-2
  Day 2 Read (CPE): 3/3 wells had No CPE and 3/3 wells had > 90% CPE and 3/3 wells had sparse
  Day 4 Read (CPE): 3/3 wells had No CPE and 2/3 wells had > 90% CPE and 1/3 wells had > 90% CPE and 3/3 wells had > 90% CPE and 3/3 wells had sparse
  Day 6 Read (CPE): 3/3 wells had No CPE and 2/3 wells had > 90% CPE and 1/3 wells had > 90% CPE and 3/3 wells had > 90% CPE and 3/3 wells had sparse
SARS-CoV-2; Severe acute respiratory syndrome coronavirus 2, read-out: minimum inhibitory concentration
  MIC: 20 µM (≈ 6.29 µg/mL)
Vero E6 cells
  cell viability of uninfected Vero E6 cells: good cell viability
